Experimental data from PubChem BioAssay AID328 (DTP/NCI, 2004).
“And” between values parts separate entries of the source, which are not always exact repeats. Equal entries are not always repeated. Toxic doses and inconclusive results are not listed.

Tested on: BDF1 mice, P388 leukemia ip, median survival T/C
Test: NCI In Vivo Anticancer Drug Screen. Data for tumor model P388 Leukemia (intraperitoneal) in B6D2F1 (BDF1) mice
Details: endpoint: median survival time, higher = longer survival
Method in brief: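 Steps: implant the tumour, treat one group with compound and another with vehicle, record survival, then divide treated by control.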

COC(=O)[C@@H](O)[C@](O)(CCC(C)C)C(=O)O[C@@H]1C(OC)=C[C@]23CCCN2CCc2cc4c(cc2[C@H]13)OCO4
T/C (dose: 0.25 mg/kg/injection, schedule: Q01DX009 (ip), vehicle: saline): 115 % of control
T/C (dose: 0.25 mg/kg/injection, schedule: Q03HX008 (ip), vehicle: saline): 115 % of control
T/C (dose: 0.25 mg/kg/injection, schedule: Q03HX016 (ip), vehicle: saline): 120 % of control
T/C (dose: 0.38 mg/kg/injection, schedule: Q01DX010 (ip), vehicle: saline): 118 % of control
T/C (dose: 0.41 mg/kg/injection, schedule: Q01DX009 (ip), vehicle: saline): 108 % of control
T/C (dose: 0.5 mg/kg/injection, schedule: Q01DX006 (iv), vehicle: saline): 100 % of control
T/C (dose: 0.5 mg/kg/injection, schedule: Q01DX009 (ip), vehicle: saline): 110 % of control
T/C (dose: 0.5 mg/kg/injection, schedule: Q01DX009 (oral), vehicle: saline): 110 % of control
T/C (dose: 0.5 mg/kg/injection, schedule: Q01DX009 (sc), vehicle: saline): 110 % of control
T/C (dose: 0.5 mg/kg/injection, schedule: Q03HX008 (ip), vehicle: saline): 110 % of control
T/C (dose: 0.5 mg/kg/injection, schedule: Q03HX016 (ip), vehicle: saline): 120 % of control
T/C (dose: 0.62 mg/kg/injection, schedule: Q01DX009 (ip), vehicle: saline): 108 % of control
T/C (dose: 1.0 mg/kg/injection, schedule: Q01DX006 (iv), vehicle: saline): 110 % of control
T/C (dose: 1.0 mg/kg/injection, schedule: Q01DX009 (ip), vehicle: saline): 120 % of control
T/C (dose: 1.0 mg/kg/injection, schedule: Q01DX009 (oral), vehicle: saline): 110 % of control
T/C (dose: 1.0 mg/kg/injection, schedule: Q01DX009 (sc), vehicle: saline): 110 % of control
T/C (dose: 1.0 mg/kg/injection, schedule: Q03HX008 (ip), vehicle: saline): 120 % of control
T/C (dose: 1.0 mg/kg/injection, schedule: Q03HX024 (ip), vehicle: saline): 200 % of control
T/C (dose: 1.0 mg/kg/injection, schedule: Q04DX003 (ip), vehicle: saline): 110 % of control
T/C (dose: 1.5 mg/kg/injection, schedule: Q01DX009 (ip), vehicle: saline): 118 % of control
T/C (dose: 1.87 mg/kg/injection, schedule: Q01DX009 (ip), vehicle: water): 150 % of control and 161 % of control
T/C (dose: 2.0 mg/kg/injection, schedule: Q01DX001 (ip), vehicle: saline): 100 % of control
T/C (dose: 2.0 mg/kg/injection, schedule: Q01DX001 (iv), vehicle: saline): 110 % of control
T/C (dose: 2.0 mg/kg/injection, schedule: Q01DX001 (oral), vehicle: saline): 110 % of control
T/C (dose: 2.0 mg/kg/injection, schedule: Q01DX001 (sc), vehicle: saline): 110 % of control
T/C (dose: 2.0 mg/kg/injection, schedule: Q01DX006 (iv), vehicle: saline): 120 % of control
T/C (dose: 2.0 mg/kg/injection, schedule: Q01DX009 (ip), vehicle: saline): 120 % of control
T/C (dose: 2.0 mg/kg/injection, schedule: Q01DX009 (oral), vehicle: saline): 110 % of control
T/C (dose: 2.0 mg/kg/injection, schedule: Q01DX009 (sc), vehicle: saline): 115 % of control
T/C (dose: 2.0 mg/kg/injection, schedule: Q03HX016 (ip), vehicle: saline): 177 % of control
T/C (dose: 2.0 mg/kg/injection, schedule: Q03HX024 (ip), vehicle: saline): 222 % of control
T/C (dose: 2.0 mg/kg/injection, schedule: Q04DX003 (ip), vehicle: saline): 115 % of control
T/C (dose: 2.0 mg/kg/injection, schedule: Q08DX002 (ip), vehicle: saline): 110 % of control
T/C (dose: 3.0 mg/kg/injection, schedule: Q01DX010 (ip), vehicle: saline): 181 % of control
T/C (dose: 3.75 mg/kg/injection, schedule: Q01DX009 (ip), vehicle: water): 172 % of control and 188 % of control
T/C (dose: 4.0 mg/kg/injection, schedule: Q01DX001 (ip), vehicle: saline): 110 % of control
T/C (dose: 4.0 mg/kg/injection, schedule: Q01DX001 (iv), vehicle: saline): 105 % of control
T/C (dose: 4.0 mg/kg/injection, schedule: Q01DX001 (oral), vehicle: saline): 110 % of control
T/C (dose: 4.0 mg/kg/injection, schedule: Q01DX001 (sc), vehicle: saline): 110 % of control
T/C (dose: 4.0 mg/kg/injection, schedule: Q03HX008 (ip), vehicle: saline): 166 % of control
T/C (dose: 4.0 mg/kg/injection, schedule: Q04DX003 (ip), vehicle: saline): 110 % of control
T/C (dose: 4.0 mg/kg/injection, schedule: Q08DX002 (ip), vehicle: saline): 105 % of control
T/C (dose: 6.0 mg/kg/injection, schedule: Q01DX009 (ip), vehicle: saline): 163 % of control
T/C (dose: 6.0 mg/kg/injection, schedule: Q01DX010 (ip), vehicle: saline): 182 % of control
T/C (dose: 7.5 mg/kg/injection, schedule: Q01DX009 (ip), vehicle: saline): 195 % of control
T/C (dose: 7.5 mg/kg/injection, schedule: Q01DX009 (ip), vehicle: water): 266 % of control and 272 % of control
T/C (dose: 8.0 mg/kg/injection, schedule: Q01DX001 (ip), vehicle: saline): 110 % of control
T/C (dose: 8.0 mg/kg/injection, schedule: Q01DX001 (iv), vehicle: saline): 110 % of control
T/C (dose: 8.0 mg/kg/injection, schedule: Q01DX001 (oral), vehicle: saline): 105 % of control
T/C (dose: 8.0 mg/kg/injection, schedule: Q01DX001 (sc), vehicle: saline): 100 % of control
T/C (dose: 8.0 mg/kg/injection, schedule: Q01DX006 (iv), vehicle: saline): 188 % of control
T/C (dose: 8.0 mg/kg/injection, schedule: Q01DX009 (ip), vehicle: saline): 235 % of control and 172 % of control and 222 % of control
T/C (dose: 8.0 mg/kg/injection, schedule: Q01DX009 (oral), vehicle: saline): 200 % of control
T/C (dose: 8.0 mg/kg/injection, schedule: Q01DX009 (sc), vehicle: saline): 200 % of control and 205 % of control
T/C (dose: 12.0 mg/kg/injection, schedule: Q01DX010 (ip), vehicle: saline): 208 % of control
T/C (dose: 15.0 mg/kg/injection, schedule: Q01DX009 (ip), vehicle: water): 105 % of control
T/C (dose: 16.0 mg/kg/injection, schedule: Q01DX001 (ip), vehicle: saline): 110 % of control
T/C (dose: 16.0 mg/kg/injection, schedule: Q01DX001 (iv), vehicle: saline): 120 % of control
T/C (dose: 16.0 mg/kg/injection, schedule: Q01DX001 (oral), vehicle: saline): 115 % of control
T/C (dose: 16.0 mg/kg/injection, schedule: Q01DX001 (sc), vehicle: saline): 110 % of control
T/C (dose: 16.0 mg/kg/injection, schedule: Q01DX009 (ip), vehicle: saline): 305 % of control and 209 % of control
T/C (dose: 16.0 mg/kg/injection, schedule: Q01DX009 (oral), vehicle: saline): 161 % of control
T/C (dose: 16.0 mg/kg/injection, schedule: Q01DX009 (sc), vehicle: saline): 105 % of control
T/C (dose: 16.0 mg/kg/injection, schedule: Q04DX003 (ip), vehicle: saline): 150 % of control
T/C (dose: 24.0 mg/kg/injection, schedule: Q01DX010 (ip), vehicle: saline): 252 % of control
T/C (dose: 32.0 mg/kg/injection, schedule: Q08DX002 (ip), vehicle: saline): 111 % of control
T/C (dose: 125.0 micrograms/kg/injection, schedule: Q03HX024 (ip), vehicle: saline): 100 % of control
T/C (dose: 250.0 micrograms/kg/injection, schedule: Q03HX024 (ip), vehicle: saline): 110 % of control
T/C (dose: 500.0 micrograms/kg/injection, schedule: Q03HX024 (ip), vehicle: saline): 120 % of control
